What was measured:
[1] = system: B16F10-Cas9 cells co-cultured with Pmel-1 T cells; assay: Genome-scale CRISPR-Cas9 screen, selection with Pmel-1 T cells; assay type: cell-based, mouse; details: Table 3; B16F10-Cas9 cells pre-treated with IFNγ, co-cultured with Pmel-1 T cells 1:1 for three days; negative = depleted, positive = enriched
[2] = system: B16F10-Cas9 cells pulsed with SIINFEKL peptide, co-cultured with OT-I T cells; assay: Genome-scale CRISPR-Cas9 screen, selection with OT-I T cells; assay type: cell-based, mouse; details: Table 3; B16F10-Cas9 cells pulsed with SIINFEKL, co-cultured with OT-I T cells 1:1 for one day; negative = depleted, positive = enriched

| Sequence | Pmel+ (sgRNA Log(2) fold change, Pmel-1 selection versus control T cells) [1] | OT1 (sgRNA Log(2) fold change, OT-I selection versus control T cells) [2] |
| --- | --- | --- |
| GGTTCCTTGCGGGACTCCGT (chemistry not fully specified) | -2.53 | -3.31 |
| GAATACGAAGCAGAAAAGGT (chemistry not fully specified) | 0.00 | -2.50 |
| GCTGTTACTCCAGAGACACA (chemistry not fully specified) | -2.27 | -0.23 |
| GCCAGCTTTCTCGCACGTGG (chemistry not fully specified) | -2.01 | -0.61 |
| ATAGAAATCTGACACTGCCG (chemistry not fully specified) | 0.00 | -2.12 |
| AAACAAGAGCACACTCCCCG (chemistry not fully specified) | 1.49 | -2.06 |
| GAATCTGAATGGAGGAACCT (chemistry not fully specified) | 0.00 | -2.21 |
| CTGAGCATGTCTAACACGAG (chemistry not fully specified) | -0.37 | -2.99 |
| AGCGTATAATCTTCGATCAG (chemistry not fully specified) | 1.35 | -2.46 |
| AAAAATTCAACGTTGAAACA (chemistry not fully specified) | -3.43 | -1.37 |
| TGTAATGTAGGTCTCCCAGG (chemistry not fully specified) | -1.35 | -3.77 |
| GGAAACGTGGCATGTCTCGG (chemistry not fully specified) | 2.66 | 1.93 |
| AAGTCCTAGATAAAGCACAT (chemistry not fully specified) | 3.43 | 3.13 |
| GCCTGTACCACGCAGCCAAG (chemistry not fully specified) | 0.00 | -2.37 |
| CTTCCTGGACATCGACGTGG (chemistry not fully specified) | 0.56 | -2.12 |
| TCAGGATGCTGTGATAAGCG (chemistry not fully specified) | 2.98 | -0.67 |
| TTTACAATCCTCCAAAGTCG (chemistry not fully specified) | -0.68 | -3.13 |
| TGTTTGCAGTTAGCAAAACG (chemistry not fully specified) | 0.00 | -2.49 |
| GCTCACCACGGGCTGCAACG (chemistry not fully specified) | 2.34 | 0.43 |
| TGAAGCTAATGACCATGAGC (chemistry not fully specified) | -0.59 | -2.77 |
| ATACACAACTATGATGCCAT (chemistry not fully specified) | 5.64 | -1.48 |
| GCTGCAGAGGCAGTTTGATG (chemistry not fully specified) | -0.70 | -3.06 |
| TTCAGATTCAGACATCAGAT (chemistry not fully specified) | 0.00 | -2.07 |

| Sequence | Pmel+ (sgRNA Log(2) fold change, Pmel-1 selection versus control T cells) [1] | OT1 (sgRNA Log(2) fold change, OT-I selection versus control T cells) [2] |
| --- | --- | --- |
| GAGATCTGCACATTCCGCAC (chemistry not fully specified) | -0.78 | -2.69 |
| TTCAAAGCAAGGCTCTACTG (chemistry not fully specified) | -0.93 | -2.28 |
| CTCAGCTGGATACAACCAGG (chemistry not fully specified) | 0.00 | -2.27 |
| ATGGGATTGATCGTTACTGG (chemistry not fully specified) | 0.00 | -2.32 |
| GAAAAGCAAGCGTAATCTCC (chemistry not fully specified) | 8.13 | 2.70 |
| GGACACCAAGTTATTCCGTG (chemistry not fully specified) | -2.89 | -3.20 |
| TCTTGAAAACTATAGTACTC (chemistry not fully specified) | -2.12 | -2.40 |
| CAGTGTCACAACCCACCGGA (chemistry not fully specified) | 0.23 | -2.75 |
| TAATTGCTGAGAATGTACTC (chemistry not fully specified) | 0.00 | -2.54 |
| CTGCAGCATATCGTCAACCA (chemistry not fully specified) | -0.72 | -2.30 |
| TAGCCGACAGAGATGTACCG (chemistry not fully specified) | 3.52 | 0.05 |
| AGGGAACCTCACTTCCAAGT (chemistry not fully specified) | 4.83 | 3.12 |
| CAATAATGCTGGTCTACGTG (chemistry not fully specified) | 2.58 | 0.89 |
| AAAACGGTCTCAAGCCAATG (chemistry not fully specified) | 1.05 | -3.05 |
| CCTTTAGTAGCAGAAGCCGC (chemistry not fully specified) | 0.73 | -2.95 |
| TGCACAGCATACACTAGTGA (chemistry not fully specified) | -1.65 | -2.96 |
| TGATGCTGGCCTCTATACTG (chemistry not fully specified) | -1.90 | -3.28 |
| GCGTCGTCGACTTATGACTT (chemistry not fully specified) | -0.05 | -3.36 |
| GCAAGAGGTTATCAAACACG (chemistry not fully specified) | -0.79 | -2.17 |
| GCACTGCTCTCATAACCCAT (chemistry not fully specified) | 3.01 | -0.77 |
| GATGTGTCCCTAGTCTACCG (chemistry not fully specified) | -0.24 | -3.40 |
| AACTTCAGTAGCGGGCGACG (chemistry not fully specified) | 0.00 | -2.23 |

— US11820822B2, “Methods for sensitizing cancer cells to T cell-mediated killing by modulating molecular pathways” (DANA-FARBER CANCER INSTITUTE, INC., priority 2017, dated 2023)
